24 compounds from patent US20250276964A1 (Novartis AG, priority 2021, published 2025) can be followed below.

The target of this experiment is T1, WIZ (Homo sapiens, UniProt O95785+Q96SW2).
T1 construct: expressed in transfected cells
Briefly: Quantification of WIZ protein levels in HiBit tag fusion protein assay (WIZ HiBit assay in 293T cells). It is filed as cell-based. Conditions: for Dmax at 25 µM / remaining activity at 25 µM: HEK-293T; for Dmax at 25 µM / % degradation of WIZ (100-Amax): 100 minus Amax at 25 uM; for Dmax at 25 µM: read-out: % degradation of WIZ (100-Amax); for remaining activity at 25 µM / WIZ Amax: DMSO-normalized, curve-fitted percentage of WIZ-HiBit remaining at 25 uM; for remaining activity at 25 µM: read-out: WIZ Amax; for DC50: WIZ HiBit assay in 293T cells, 10-point, 5-fold dilution, highest concentration 25 μM, about 18 hours, read-out: WIZ AC50. Summed up:
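293T cells stably carrying single-copy HiBit-WIZ (HSVTK promoter) treated ~18 h at 37 °C with 10-point, 5-fold dilutions, top 25 μM. Lytic HiBit luminescence read; Amax is DMSO-normalised, curve-fitted % WIZ-HiBit remaining at 25 uM.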
Background: The HiBiT peptide binds its large partner to form an active luciferase.

T1 sequence (O95785 whole entry): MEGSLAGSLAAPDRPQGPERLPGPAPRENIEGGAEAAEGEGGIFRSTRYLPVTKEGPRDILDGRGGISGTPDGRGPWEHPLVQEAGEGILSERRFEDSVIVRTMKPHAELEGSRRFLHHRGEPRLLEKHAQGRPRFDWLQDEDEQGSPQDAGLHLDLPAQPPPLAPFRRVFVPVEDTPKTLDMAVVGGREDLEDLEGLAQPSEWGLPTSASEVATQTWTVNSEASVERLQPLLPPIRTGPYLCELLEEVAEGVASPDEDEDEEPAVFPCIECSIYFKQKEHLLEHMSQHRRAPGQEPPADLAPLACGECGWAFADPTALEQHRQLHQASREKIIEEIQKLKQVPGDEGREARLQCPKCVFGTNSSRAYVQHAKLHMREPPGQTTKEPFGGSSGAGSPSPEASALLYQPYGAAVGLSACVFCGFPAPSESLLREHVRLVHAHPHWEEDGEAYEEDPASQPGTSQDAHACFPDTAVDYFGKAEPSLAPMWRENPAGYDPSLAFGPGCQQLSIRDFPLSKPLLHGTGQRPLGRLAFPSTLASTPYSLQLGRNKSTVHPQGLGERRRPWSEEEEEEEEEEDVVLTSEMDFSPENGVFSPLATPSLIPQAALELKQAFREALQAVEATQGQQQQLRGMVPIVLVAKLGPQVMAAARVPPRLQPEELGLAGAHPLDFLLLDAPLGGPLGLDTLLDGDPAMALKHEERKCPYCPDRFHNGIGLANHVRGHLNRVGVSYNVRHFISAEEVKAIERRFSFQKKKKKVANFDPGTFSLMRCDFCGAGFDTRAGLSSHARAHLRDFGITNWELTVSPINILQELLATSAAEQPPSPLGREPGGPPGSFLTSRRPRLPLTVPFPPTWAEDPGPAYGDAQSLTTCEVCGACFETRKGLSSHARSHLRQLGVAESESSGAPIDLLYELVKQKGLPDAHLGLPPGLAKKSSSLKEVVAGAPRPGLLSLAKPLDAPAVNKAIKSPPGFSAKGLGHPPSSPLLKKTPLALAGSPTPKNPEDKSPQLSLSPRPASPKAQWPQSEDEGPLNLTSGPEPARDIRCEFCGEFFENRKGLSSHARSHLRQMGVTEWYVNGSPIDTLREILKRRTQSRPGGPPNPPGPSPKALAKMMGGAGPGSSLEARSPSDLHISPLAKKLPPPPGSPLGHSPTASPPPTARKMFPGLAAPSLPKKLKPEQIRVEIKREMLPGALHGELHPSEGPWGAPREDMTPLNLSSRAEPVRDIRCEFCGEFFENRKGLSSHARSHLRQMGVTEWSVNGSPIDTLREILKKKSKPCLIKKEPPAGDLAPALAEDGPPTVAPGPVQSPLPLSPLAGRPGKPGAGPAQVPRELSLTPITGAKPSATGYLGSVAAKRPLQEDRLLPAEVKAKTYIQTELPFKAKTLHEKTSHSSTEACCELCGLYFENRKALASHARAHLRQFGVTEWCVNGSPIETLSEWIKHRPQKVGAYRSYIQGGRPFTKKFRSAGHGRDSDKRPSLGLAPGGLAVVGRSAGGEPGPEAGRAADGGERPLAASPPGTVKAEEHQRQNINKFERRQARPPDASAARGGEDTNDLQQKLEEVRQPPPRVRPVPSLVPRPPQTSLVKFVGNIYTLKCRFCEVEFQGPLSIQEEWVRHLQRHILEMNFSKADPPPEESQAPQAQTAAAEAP
T1 sequence (Q96SW2 whole entry): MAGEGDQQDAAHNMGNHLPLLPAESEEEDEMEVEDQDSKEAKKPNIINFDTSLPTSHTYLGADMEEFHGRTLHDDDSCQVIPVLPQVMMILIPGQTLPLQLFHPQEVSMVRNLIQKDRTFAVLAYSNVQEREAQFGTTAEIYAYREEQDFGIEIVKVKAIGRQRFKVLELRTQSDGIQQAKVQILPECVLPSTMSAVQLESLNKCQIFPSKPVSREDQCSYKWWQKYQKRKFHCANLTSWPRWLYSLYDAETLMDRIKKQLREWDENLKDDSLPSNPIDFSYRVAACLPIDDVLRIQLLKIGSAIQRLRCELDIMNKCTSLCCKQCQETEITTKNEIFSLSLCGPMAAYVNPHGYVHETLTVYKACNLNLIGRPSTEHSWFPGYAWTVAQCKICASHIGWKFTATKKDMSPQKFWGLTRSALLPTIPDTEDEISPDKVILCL
T1 sequence (Q16531 whole entry partner): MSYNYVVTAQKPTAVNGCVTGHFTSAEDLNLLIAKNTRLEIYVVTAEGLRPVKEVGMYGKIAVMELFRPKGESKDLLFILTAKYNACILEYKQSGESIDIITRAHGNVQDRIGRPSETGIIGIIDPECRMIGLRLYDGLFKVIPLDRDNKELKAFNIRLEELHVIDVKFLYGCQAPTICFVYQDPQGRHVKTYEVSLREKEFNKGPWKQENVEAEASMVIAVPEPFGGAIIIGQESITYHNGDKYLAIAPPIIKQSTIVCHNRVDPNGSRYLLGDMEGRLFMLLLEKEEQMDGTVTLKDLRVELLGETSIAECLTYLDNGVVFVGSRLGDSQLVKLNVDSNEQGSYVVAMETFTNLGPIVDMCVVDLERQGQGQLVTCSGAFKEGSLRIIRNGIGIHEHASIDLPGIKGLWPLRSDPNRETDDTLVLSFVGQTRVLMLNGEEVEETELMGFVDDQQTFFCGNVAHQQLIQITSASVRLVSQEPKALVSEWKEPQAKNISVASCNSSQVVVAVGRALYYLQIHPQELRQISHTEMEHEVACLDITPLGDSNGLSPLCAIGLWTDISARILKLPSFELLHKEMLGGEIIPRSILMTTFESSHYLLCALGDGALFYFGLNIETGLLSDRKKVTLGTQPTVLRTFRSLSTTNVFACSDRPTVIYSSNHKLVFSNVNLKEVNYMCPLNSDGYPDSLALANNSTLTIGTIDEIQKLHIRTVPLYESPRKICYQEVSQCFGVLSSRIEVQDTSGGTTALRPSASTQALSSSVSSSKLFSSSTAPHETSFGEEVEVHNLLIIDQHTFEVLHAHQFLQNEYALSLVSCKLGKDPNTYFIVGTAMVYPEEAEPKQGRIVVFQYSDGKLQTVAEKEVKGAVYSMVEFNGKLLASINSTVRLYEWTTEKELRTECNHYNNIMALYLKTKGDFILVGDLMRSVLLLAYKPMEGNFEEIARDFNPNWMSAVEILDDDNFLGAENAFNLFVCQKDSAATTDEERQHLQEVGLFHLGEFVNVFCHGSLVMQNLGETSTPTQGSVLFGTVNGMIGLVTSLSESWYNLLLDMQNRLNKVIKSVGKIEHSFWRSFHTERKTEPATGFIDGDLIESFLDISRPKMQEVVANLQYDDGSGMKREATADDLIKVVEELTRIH

On to `CS(=O)(=O)N1CCN(Cc2ccc3onc(N4CCC(=O)NC4=O)c3c2)CC1` [Example 83, 1-(5-((4-(methylsulfonyl)piperazin-1-yl)methyl)benzo[d]isoxazol-3-yl)dihydropyrimidine-2,4(1H,3H)-dione], for which the Dmax at 25 µM was 83%, the remaining activity at 25 µM was found to be 17% and the DC50 is 93 nM.
For `O=C1CCN(c2noc3ccc(CN4CCN5CCOC[C@@H]5C4)cc23)C(=O)N1` [Example 111, (S)-1-(5-((hexahydropyrazino[2,1-c][1,4]oxazin-8(1H)-yl)methyl)benzo[d]isoxazol-3-yl)dihydropyrimidine-2,4(1H,3H)-dione], the Dmax at 25 µM stood at 85%, the remaining activity at 25 µM was 15% and the DC50 is 61 nM.
In the case of `O=C1CCN(c2noc3ccc(CC4CCN(CC5CCCCC5)C4)cc23)C(=O)N1` (stereo not drawn) [Example 49, 1-(5-((1-(cyclohexylmethyl)pyrrolidin-3-yl)methyl)benzo[d]isoxazol-3-yl)dihydropyrimidine-2,4(1H,3H)-dione], the Dmax at 25 µM was 87%, the remaining activity at 25 µM came out at 13% and the DC50 came to 279 nM.
With `CN1CCN(Cc2ccc3onc(N4CCC(=O)NC4=O)c3c2)CC1(C)C` [Example 92, 1-(5-((3,3,4-trimethylpiperazin-1-yl)methyl)benzo[d]isoxazol-3-yl)dihydropyrimidine-2,4(1H,3H)-dione], the Dmax at 25 µM worked out at 82%, the remaining activity at 25 µM was 18% and the DC50 is 4 nM.
Taken in the same sequence, the figures for `C[C@@H]1CN(C(=O)NC2CCCC2)CCN1Cc1ccc2onc(N3CCC(=O)NC3=O)c2c1` [Example 76, (R)—N-cyclopentyl-4-((3-(2,4-dioxotetrahydropyrimidin-1(2H)-yl)benzo[d]isoxazol-5-yl)methyl)-3-methylpiperazine-1-carboxamide] were 78%, 22% and 115 nM.
Turning to `C[C@H]1CN(Cc2ccc3onc(N4CCC(=O)NC4=O)c3c2)CCN1C1COC1` [Example 82, (S)-1-(5-((3-methyl-4-(oxetan-3-yl)piperazin-1-yl)methyl)benzo[d]isoxazol-3-yl)dihydropyrimidine-2,4(1H,3H)-dione], the Dmax at 25 µM amounted to 95%, the remaining activity at 25 µM stood at 5% and the DC50 came out at 77 nM.
With `Cc1c(CN2CCN(CC(C)C)[C@@H](C)C2)ccc2onc(N3CCC(=O)NC3=O)c12` [Example 128, (S)-1-(5-((4-isobutyl-3-methylpiperazin-1-yl)methyl)-4-methylbenzo[d]isoxazol-3-yl)dihydropyrimidine-2,4(1H,3H)-dione], the Dmax at 25 µM was 88%, the remaining activity at 25 µM came to 12% and the DC50 is 7 nM.
With `COC[C@H]1CN(Cc2ccc3onc(N4CCC(=O)NC4=O)c3c2)CCN1C` [Example 117, (R)-1-(5-((3-(methoxymethyl)-4-methylpiperazin-1-yl)methyl)benzo[d]isoxazol-3-yl)dihydropyrimidine-2,4(1H,3H)-dione], the Dmax at 25 µM turned out to be 87%, the remaining activity at 25 µM was 13% and the DC50 is 578 nM.
Regarding `O=C1CCN(c2noc3ccc(CC4CCN(CC(F)(F)F)CC4)cc23)C(=O)N1` [Example 13, 1-(5-((1-(2,2,2-trifluoroethyl)piperidin-4-yl)methyl)benzo[d]isoxazol-3-yl)dihydropyrimidine-2,4(1H,3H)-dione], the Dmax at 25 µM is 89%, the remaining activity at 25 µM is 11% and the DC50 was determined as 39 nM.
For the compound `CS(=O)(=O)N1[C@@H]2CC[C@H]1CC(Cc1ccc3onc(N4CCC(=O)NC4=O)c3c1)C2` (stereo partly drawn) [Example 60, 1-(5-(((1R,5S)-8-(methylsulfonyl)-8-azabicyclo[3.2.1]octan-3-yl)methyl)benzo[d]isoxazol-3-yl)dihydropyrimidine-2,4(1H,3H)-dione], the Dmax at 25 µM is 90%, the remaining activity at 25 µM was 10% and the DC50 was 9 nM.
With `CC(C)(C)OC(=O)N1CCC(Cc2ccc3onc(N4CCC(=O)NC4=O)c3c2)C1` (stereo not drawn) [Example 47, tert-butyl 3-((3-(2,4-dioxotetrahydropyrimidin-1 (2H)-yl)benzo[d]isoxazol-5-yl)methyl)pyrrolidine-1-carboxylate], the Dmax at 25 µM came out at 85%, the remaining activity at 25 µM came to 15% and the DC50 was found to be 397 nM.
In the case of `CN1C[C@H]2CC[C@@H](C1)N2Cc1ccc2onc(N3CCC(=O)NC3=O)c2c1` [Example 103, 1-(5-(((1R,5S)-3-methyl-3,8-diazabicyclo[3.2.1]octan-8-yl)methyl)benzo[d]isoxazol-3-yl)dihydropyrimidine-2,4(1H,3H)-dione], the Dmax at 25 µM is 86%, the remaining activity at 25 µM stood at 14% and the DC50 worked out at 68 nM.
Regarding `CC(C)S(=O)(=O)N1CCN(Cc2ccc3onc(N4CCC(=O)NC4=O)c3c2)CC1` [Example 84, 1-(5-((4-(isopropylsulfonyl)piperazin-1-yl)methyl)benzo[d]isoxazol-3-yl)dihydropyrimidine-2,4(1H,3H)-dione], the Dmax at 25 µM is 82%, the remaining activity at 25 µM came out at 18% and the DC50 was 145 nM.
Regarding `O=C1CCN(c2noc3ccc(CN4CCN(CC5CCCCC5)CC4)cc23)C(=O)N1` [Example 21, 1-(5-((4-(cyclohexylmethyl)piperazin-1-yl)methyl)benzo[d]isoxazol-3-yl)dihydropyrimidine-2,4(1H,3H)-dione], the Dmax at 25 µM is 90%, the remaining activity at 25 µM came out at 10% and the DC50 worked out at 19 nM.
As to `CC(C)(C)OC(=O)N1CCCC(Cc2ccc3onc(N4CCC(=O)NC4=O)c3c2)CC1` (stereo not drawn) [Example 51, tert-butyl 4-((3-(2,4-dioxotetrahydropyrimidin-1 (2H)-yl)benzo[d]isoxazol-5-yl)methyl)azepane-1-carboxylate], the Dmax at 25 µM turned out to be 87%, the remaining activity at 25 µM came out at 13% and the DC50 amounted to 392 nM.
Take `O=C1CCN(c2noc3ccc(CN4CCN(C5CCC5)CC4)cc23)C(=O)N1` [Example 80, 1-(5-((4-cyclobutylpiperazin-1-yl)methyl)benzo[d]isoxazol-3-yl)dihydropyrimidine-2,4(1H,3H)-dione]: the Dmax at 25 µM turned out to be 93%, the remaining activity at 25 µM came to 7% and the DC50 turned out to be 14 nM.
For `O=C1CCN(c2noc3ccc(CN4CC5CCC4CN5CC4CCOCC4)cc23)C(=O)N1` (single isomer, unassigned) [Example 121, 1-(5-((5-((tetrahydro-2H-pyran-4-yl)methyl)-2,5-diazabicyclo[2.2.2]octan-2-yl)methyl)benzo[d]isoxazol-3-yl)dihydropyrimidine-2,4(1H,3H)-dione], in that order: 86%, 14% and 317 nM.
Taken in the same sequence, the figures for `CCS(=O)(=O)N1CCN(Cc2ccc3onc(N4CCC(=O)NC4=O)c3c2)[C@H](C)C1` [Example 72, (R)-1-(5-((4-(ethylsulfonyl)-2-methylpiperazin-1-yl)methyl)benzo[d]isoxazol-3-yl)dihydropyrimidine-2,4(1H,3H)-dione] were 81%, 19% and 98 nM.
As for `CC[C@@H]1CN(CC(C)C)CCN1Cc1ccc2onc(N3CCC(=O)NC3=O)c2c1` [Example 88, (R)-1-(5-((2-ethyl-4-isobutylpiperazin-1-yl)methyl)benzo[d]isoxazol-3-yl)dihydropyrimidine-2,4(1H,3H)-dione], the Dmax at 25 µM stood at 85%, the remaining activity at 25 µM was determined as 15% and the DC50 was determined as 8 nM.
Regarding `CS(=O)(=O)N1[C@@H]2CC[C@H]1CC(Cc1ccc3onc(N4CCC(=O)NC4=O)c3c1)C2` (stereo partly drawn) [Example 61, 1-(5-(((1R,5S)-8-(methylsulfonyl)-8-azabicyclo[3.2.1]octan-3-yl)methyl)benzo[d]isoxazol-3-yl)dihydropyrimidine-2,4(1H,3H)-dione], the “% degradation of WIZ (100-Amax)” value came to 85%, the “WIZ Amax” value was 15% and the DC50 turned out to be 26 nM.
In the case of `C[C@@H]1CN(S(C)(=O)=O)CCN1Cc1ccc2onc(N3CCC(=O)NC3=O)c2c1` [Example 71, (R)-1-(5-((2-methyl-4-(methylsulfonyl)piperazin-1-yl)methyl)benzo[d]isoxazol-3-yl)dihydropyrimidine-2,4(1H,3H)-dione], the Dmax at 25 µM was 82%, the remaining activity at 25 µM was found to be 18% and the DC50 stood at 34 nM.
Consider `O=C1CCN(c2noc3ccc(CC4CCN(CC5CC5)CC4)cc23)C(=O)N1` [Example 6, 1-(5-((1-(cyclopropylmethyl)piperidin-4-yl)methyl)benzo[d]isoxazol-3-yl)dihydropyrimidine-2,4(1H,3H)-dione], for which the Dmax at 25 µM came out at 91%, the remaining activity at 25 µM is 9% and the DC50 is 30 nM.
For `CCN1CCC(Cc2ccc3onc(N4CCC(=O)NC4=O)c3c2)CC1` [Example 8, 1-(5-((1-ethylpiperidin-4-yl)methyl)benzo[d]isoxazol-3-yl)dihydropyrimidine-2,4(1H,3H)-dione], in that order: 91%, 9% and 16 nM.
As to `O=C1CCN(c2noc3ccc(CC4C[C@H]5CC[C@@H](C4)N5)cc23)C(=O)N1` (stereo partly drawn) [Example 57, 1-(5-(((1R,5S)-8-azabicyclo[3.2.1]octan-3-yl)methyl)benzo[d]isoxazol-3-yl)dihydropyrimidine-2,4(1H,3H)-dione], the “% degradation of WIZ (100-Amax)” value is given as 80%, the “WIZ Amax” value stood at 20% and the DC50 turned out to be 649 nM.
